Drawing on ChEMBL document CHEMBL5226352, “Inhibition of AlkB Nucleic Acid Demethylases: Promising New Epigenetic Targets” (J Med Chem, 2021), this text covers IC50, bioavailability and inhibition for 11 molecules.

For data set [1], the target named is T1, Alpha-ketoglutarate-dependent dioxygenase AlkB (Escherichia coli (strain K12), UniProt P05050).
T1 sequence (P05050 whole entry): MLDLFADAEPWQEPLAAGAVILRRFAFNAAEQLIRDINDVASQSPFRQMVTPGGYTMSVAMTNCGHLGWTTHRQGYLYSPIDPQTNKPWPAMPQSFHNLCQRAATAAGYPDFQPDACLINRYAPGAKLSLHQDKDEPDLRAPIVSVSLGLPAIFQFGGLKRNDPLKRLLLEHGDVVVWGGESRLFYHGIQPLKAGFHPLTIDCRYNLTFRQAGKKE
As to the kind of experiment: Inhibition of Escherichia coli AlkB DNA repair activity using 1-methyladenine with GC-1meA-AGGTCCCGTAGTGCG sequence as substrate by FDH coupled assay.

Data set [2] addresses T2, RNA demethylase ALKBH5 (Homo sapiens, UniProt Q6P6C2). The data set is described as follows: Inhibition of human ALKBH5 (74 to 294 residues) expressed in Escherichia coli BL21(DE3) V2R-pRARE cells using biotin labeled m6A-ss-RNA with UACACUCGAUCUGG(m6A)CUAAAGCUGCUC sequence as substrate incubated for 1 hr by TopCount scintillation counting method.
Data set [3] has as its target T3, Alpha-ketoglutarate-dependent dioxygenase FTO (Homo sapiens, UniProt Q9C0B1). The data set is described as follows: Inhibition of N-terminal 31 residues truncated FTO (unknown origin) demethylase activity using m6A containing ssRNA as substrate incubated for 1 hr by LC-MS analysis.
Data set [4] deals with T2, RNA demethylase ALKBH5. As to the kind of experiment: Inhibition of human ALKBH5 (66 to 292 residues) demethylase activity using 49 nt methylated ssDNA as substrate incubated for 2 hrs by GelRed staining based restriction endonuclease digestion assay.
In data set [5] the target is T1, Alpha-ketoglutarate-dependent dioxygenase AlkB. As to the kind of experiment: Inhibition of Escherichia coli AlkB by HPLC analysis.
Data set [6] addresses T4, DNA oxidative demethylase ALKBH2 (Homo sapiens, UniProt Q6NS38).
T4 sequence (Q6NS38 whole entry): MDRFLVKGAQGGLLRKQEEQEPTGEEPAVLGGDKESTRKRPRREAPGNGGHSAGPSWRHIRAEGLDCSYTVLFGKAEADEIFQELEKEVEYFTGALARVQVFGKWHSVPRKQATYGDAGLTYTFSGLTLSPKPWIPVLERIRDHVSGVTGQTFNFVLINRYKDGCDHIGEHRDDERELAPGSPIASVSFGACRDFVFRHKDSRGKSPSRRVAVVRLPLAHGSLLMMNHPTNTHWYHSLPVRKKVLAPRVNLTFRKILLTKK
As to the kind of experiment: Inhibition of human ALKBH2 by HPLC analysis.

The target in data set [7] is T5, Alpha-ketoglutarate-dependent dioxygenase alkB homolog 3 (Homo sapiens, UniProt Q96Q83).
T5 sequence (Q96Q83 whole entry): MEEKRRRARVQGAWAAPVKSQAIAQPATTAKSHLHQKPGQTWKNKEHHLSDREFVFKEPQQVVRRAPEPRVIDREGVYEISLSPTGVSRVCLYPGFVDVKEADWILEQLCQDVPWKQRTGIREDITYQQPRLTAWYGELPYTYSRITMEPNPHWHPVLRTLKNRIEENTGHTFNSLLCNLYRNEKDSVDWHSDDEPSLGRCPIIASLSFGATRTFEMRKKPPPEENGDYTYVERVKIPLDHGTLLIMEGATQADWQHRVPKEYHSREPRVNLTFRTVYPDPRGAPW
The data set is described as follows: Inhibition of human ALKBH3 by HPLC analysis.

Data set [8] in a line: Oral bioavailability in rat. In kind it is ADME, organism-based. To be noted: in vivo.
The target in data set [9] is T2, RNA demethylase ALKBH5. As to the kind of experiment: Inhibition of ALKBH5 (unknown origin).
A short description of data set [10]: Inhibition of human AlkB using fluorescent labeled DNA substrate (TTCmTTTTTTTTTTTT).
The target of data set [11] is Histone lysine demethylase PHF8 (Homo sapiens, UniProt Q9UPP1). The data set is described as follows: Inhibition of PHF8 (unknown origin).
Sequence of Histone lysine demethylase PHF8 (Q9UPP1 whole entry): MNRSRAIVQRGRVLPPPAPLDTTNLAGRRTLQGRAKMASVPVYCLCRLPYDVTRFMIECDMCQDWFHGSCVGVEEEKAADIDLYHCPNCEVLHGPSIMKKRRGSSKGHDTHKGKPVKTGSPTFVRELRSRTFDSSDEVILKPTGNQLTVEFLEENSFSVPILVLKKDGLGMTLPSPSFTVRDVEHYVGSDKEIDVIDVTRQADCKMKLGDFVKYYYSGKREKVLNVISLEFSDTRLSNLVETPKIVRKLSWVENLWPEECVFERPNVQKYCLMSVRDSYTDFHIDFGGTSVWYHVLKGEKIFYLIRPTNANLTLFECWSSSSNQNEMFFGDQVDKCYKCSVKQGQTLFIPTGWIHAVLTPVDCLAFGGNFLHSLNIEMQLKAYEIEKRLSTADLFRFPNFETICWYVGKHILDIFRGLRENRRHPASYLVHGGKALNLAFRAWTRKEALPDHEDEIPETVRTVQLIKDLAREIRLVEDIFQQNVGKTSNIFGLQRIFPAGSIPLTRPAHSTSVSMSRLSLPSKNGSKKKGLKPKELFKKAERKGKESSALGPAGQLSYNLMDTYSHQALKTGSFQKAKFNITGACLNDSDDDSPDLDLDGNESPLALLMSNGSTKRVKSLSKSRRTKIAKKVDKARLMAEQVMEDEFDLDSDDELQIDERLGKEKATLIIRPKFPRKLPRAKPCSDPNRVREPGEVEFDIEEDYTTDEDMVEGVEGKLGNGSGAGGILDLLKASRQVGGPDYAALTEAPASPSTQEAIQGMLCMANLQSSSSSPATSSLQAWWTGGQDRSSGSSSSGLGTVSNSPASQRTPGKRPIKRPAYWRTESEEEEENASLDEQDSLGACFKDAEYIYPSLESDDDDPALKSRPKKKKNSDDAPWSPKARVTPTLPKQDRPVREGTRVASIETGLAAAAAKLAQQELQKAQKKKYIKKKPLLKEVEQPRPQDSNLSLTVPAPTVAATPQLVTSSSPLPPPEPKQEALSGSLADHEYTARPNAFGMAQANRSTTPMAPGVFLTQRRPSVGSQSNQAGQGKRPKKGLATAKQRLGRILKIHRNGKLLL
In data set [12] the target is T6, Gamma-butyrobetaine dioxygenase (Homo sapiens, UniProt O75936).
T6 sequence (O75936 whole entry): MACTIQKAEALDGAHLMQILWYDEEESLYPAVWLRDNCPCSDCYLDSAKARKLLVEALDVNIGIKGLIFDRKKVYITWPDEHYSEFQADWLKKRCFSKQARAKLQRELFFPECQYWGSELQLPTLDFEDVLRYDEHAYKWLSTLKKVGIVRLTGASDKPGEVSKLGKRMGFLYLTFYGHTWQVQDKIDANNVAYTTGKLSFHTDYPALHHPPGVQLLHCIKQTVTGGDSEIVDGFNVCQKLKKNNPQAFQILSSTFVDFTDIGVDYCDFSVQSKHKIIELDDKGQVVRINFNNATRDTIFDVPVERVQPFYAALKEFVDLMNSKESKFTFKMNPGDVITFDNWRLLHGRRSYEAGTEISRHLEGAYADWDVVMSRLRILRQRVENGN
As to the kind of experiment: Inhibition of BBOX1 (unknown origin).

Data set [13] addresses T3, Alpha-ketoglutarate-dependent dioxygenase FTO. The data set is described as follows: Inhibition of human FTO (31 to 505 residues) demethylase activity using 15-mer ssRNA with CUUGUCA(m6A)CAGCAGA sequence as substrate incubated for 0.5 hrs by LC-MS/MS analysis.
Data set [14] has as its target Egl nine homolog 1 (Homo sapiens, UniProt Q9GZT9). The data set is described as follows: Inhibition of N-terminal truncated PHD2 (unknown origin) by luminescence based assay.
For data set [15], the target named is T3, Alpha-ketoglutarate-dependent dioxygenase FTO. As to the kind of experiment: Inhibition of N-terminal 31 residues truncated His-tagged human FTO demethylase activity expressed in Escherichia coli BL21(DE3) cells.
The target in data set [16] is T4, DNA oxidative demethylase ALKBH2. The data set is described as follows: Inhibition of human ALKBH2 demethylase activity by restriction endonuclease digestion assay.
In data set [17] the target is T5, Alpha-ketoglutarate-dependent dioxygenase alkB homolog 3. As to the kind of experiment: Inhibition of human ALKBH3 demethylase activity by restriction endonuclease digestion assay.
Data set [18] deals with T2, RNA demethylase ALKBH5. The data set is described as follows: Inhibition of N-terminal His-tagged human ALKBH5 (66 to 292 residues).
In data set [19] the target is T5, Alpha-ketoglutarate-dependent dioxygenase alkB homolog 3. As to the kind of experiment: Inhibition of ALKBH3 (unknown origin) using 3-methyl cytosine oligo DNA as substrate incubated for 1 hr by SYBR green dye based RT-PCR analysis.
The target in data set [20] is T7, Alpha-ketoglutarate-dependent dioxygenase alkB homolog 3 (Homo sapiens) (UniProt Q96Q83).
T7 sequence (whole entry): T5 sequence (Q96Q83 whole entry)
As to the kind of experiment: Inhibition of ALKBH3 (unknown origin) at 50 uM relative to control.

Data set [21] deals with T1, Alpha-ketoglutarate-dependent dioxygenase AlkB. As to the kind of experiment: Inhibition of Escherichia coli AlkB-mediated demethylation using 40-mer single N3-meC containing ssDNA as substrate preincubated for 1 hr followed by substrate addition by fluorescence based assay.
For data set [22], the target named is T3, Alpha-ketoglutarate-dependent dioxygenase FTO. As to the kind of experiment: Inhibition of FTO (unknown origin) demethylation activity.

T2 sequence (Q6P6C2 whole entry, the tested form may be a part): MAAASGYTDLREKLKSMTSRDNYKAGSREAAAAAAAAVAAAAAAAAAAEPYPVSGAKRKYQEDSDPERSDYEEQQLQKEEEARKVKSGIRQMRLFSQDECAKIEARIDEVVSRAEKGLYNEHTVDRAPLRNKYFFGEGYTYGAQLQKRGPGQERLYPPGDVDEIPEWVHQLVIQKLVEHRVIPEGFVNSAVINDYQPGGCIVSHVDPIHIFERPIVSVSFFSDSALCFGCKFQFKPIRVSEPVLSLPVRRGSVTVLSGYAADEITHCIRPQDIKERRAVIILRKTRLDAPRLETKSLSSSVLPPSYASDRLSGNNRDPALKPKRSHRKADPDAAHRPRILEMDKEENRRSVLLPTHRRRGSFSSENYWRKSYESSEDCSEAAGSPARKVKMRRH
T3 sequence (Q9C0B1 whole entry, the tested form may be a part): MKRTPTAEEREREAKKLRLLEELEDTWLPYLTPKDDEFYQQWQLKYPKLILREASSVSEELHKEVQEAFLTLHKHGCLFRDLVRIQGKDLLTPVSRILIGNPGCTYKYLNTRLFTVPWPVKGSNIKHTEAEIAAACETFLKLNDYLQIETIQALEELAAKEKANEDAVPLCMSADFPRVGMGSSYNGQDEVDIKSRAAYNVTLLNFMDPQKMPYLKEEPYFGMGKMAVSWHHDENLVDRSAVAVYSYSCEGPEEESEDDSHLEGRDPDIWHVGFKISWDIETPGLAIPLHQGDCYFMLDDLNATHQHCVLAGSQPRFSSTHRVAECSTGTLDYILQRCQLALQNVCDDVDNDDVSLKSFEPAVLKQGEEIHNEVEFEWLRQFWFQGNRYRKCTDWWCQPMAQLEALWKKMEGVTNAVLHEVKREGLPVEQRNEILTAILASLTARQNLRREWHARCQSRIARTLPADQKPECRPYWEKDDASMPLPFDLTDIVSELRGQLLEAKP
Sequence of Egl nine homolog 1 (Q9GZT9 whole entry, the tested form may be a part): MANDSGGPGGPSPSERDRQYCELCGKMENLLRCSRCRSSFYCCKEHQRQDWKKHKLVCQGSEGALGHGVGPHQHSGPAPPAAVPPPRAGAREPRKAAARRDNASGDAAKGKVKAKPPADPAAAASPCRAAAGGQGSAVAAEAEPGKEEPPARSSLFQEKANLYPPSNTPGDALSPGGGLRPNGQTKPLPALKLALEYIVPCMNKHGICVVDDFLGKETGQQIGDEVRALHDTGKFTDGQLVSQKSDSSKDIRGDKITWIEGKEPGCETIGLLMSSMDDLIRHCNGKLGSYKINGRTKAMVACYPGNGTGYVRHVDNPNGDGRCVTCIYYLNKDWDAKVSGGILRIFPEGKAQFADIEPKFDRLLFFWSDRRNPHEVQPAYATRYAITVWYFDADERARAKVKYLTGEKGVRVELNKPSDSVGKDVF

The term IC50 denotes the midpoint of a concentration-inhibition curve. A high value points to weaker potency. As for `O=C(O)c1ccc(O)c2ncccc12`, the IC50 in [1] was 10.2 µM; in [2], 2.9 µM.

On to `O=C1OC2(c3ccc(O)cc3Oc3cc(O)ccc32)c2ccccc21` [FLUORESCEIN], for which the IC50 in [3] is 3.23 µM; in data set [4], greater than 100 µM.

On to `O=C(O)c1cc(O)c2c(c1)C(=O)c1cccc(O)c1C2=O` [RHEIN], for which the IC50 in [5] amounted to 12.7 µM; in [6], 9.1 µM; in data set [7] it was 5.3 µM.

One may read the bioavailability as dose-corrected exposure relative to a reference, in per cent. As to `Cc1ccc2[nH]c(-n3nc(C)cc3O)nc2c1`, the bioavailability in [8] was found to be 7.2%.

For `O=C(O)c1ccnc(C(=O)O)c1`, the IC50 in [9] stood at 9.43 µM; in [10] it was 84 µM; in [11], 153 µM; in [12], 82 µM.

Consider `COc1cc2c(cc1Cl)C(C)(C)CC(C)(c1cc(Cl)c(O)cc1O)O2` (configuration not stated), for which half-maximal inhibition in [13] (IC50) was put at 39.2 µM.

Regarding `O=C(O)CNC(=O)c1ncccc1O`, in data set [14], inhibition was half-maximal at 409 µM (IC50).

Regarding `Cc1ccc(Cl)c(Nc2ccccc2C(=O)O)c1Cl` [MECLOFENAMIC ACID], the 50% inhibitory concentration (IC50) was 8 µM in [15], greater than 100 µM in [16], greater than 100 µM in [17] and greater than 100 µM in data set [18].

Consider `Cc1nn(-c2nc3cc(F)ccc3[nH]2)c(O)c1-c1ccccc1`, for which inhibition in data set [19] was half-maximal at 2.9 µM (IC50).

Broadly, the inhibition is the drop in the measured response relative to a control, in per cent. Consider `O=C1c2ccc(-c3ccccc3)cc2C(NC2CCCCC2)C1Cl` (configuration not stated), for which the inhibition in [20] was determined as 0%. Moreover, in [21], 19.4 µM corresponded to half-maximal inhibition (IC50).

`CCN(CC)C(=O)/C(C#N)=C/c1cc(O)c(O)c([N+](=O)[O-])c1` [ENTACAPONE] displayed a half-inhibitory concentration (IC50) in data set [22] of 3.5 µM.
